The experiment deals with T1, B19V (native virus capsid) (Human parvovirus B19 strain HV, UniProt Q9PZT0).
T1 construct: gene vp; icosahedral capsid of 60 VP1 and VP2 proteins; with Minor capsid protein VP1
Put plainly: hemagglutination inhibition of human red blood cells by soluble Gb4; binding to cells also by qPCR. The note with it: pH 6.3, PiBS, room temperature; ceramide of natural source (Matreya), in DMSO; Gb3 as control lipid. It counts as cell-based.

As for globoside [Gb4], the “hemagglutination inhibition, effective concentration” value is 0.2 to 0.4 µM.
